Converted amounts (≈) assume the structure as drawn. Read-outs that look alike come from different tables or passages of the source.
What was measured:
S. aureus [1] = assay: MIC (microbroth dilution); assay type: cell-based, Staphylococcus aureus; settings: for MIC: Staphylococcus aureus
Procedure: (§1) All bacteria were maintained on tryptic soy agar (TSA), except Streptococcus spp., which were maintained on Columbia agar plates containing 5% horse blood. […] Bacteria were grown to stationary phase in liquid culture overnight, with shaking at 200 rpm, before being back diluted to the relevant starting concentration for each assay below. MICs were measured by the microbroth dilution method. […] Absorbance at OD600 was read on a CLARIOstar spectrophotometer (BMG Labtech) and the MIC was defined as the minimum concentration of compound where no visible growth was detected. […] MICs were also performed in the presence of the outer membrane permeator, polymyxin b nonapeptide (PMBN) following the same MIC method but with the following variation. The 2-fold dilution series of compound was prepared as above, then 50 μL of PMBN at a final concentration of 30 μg/mL was added to relevant wells, while 50 μL/well of blank media was added to the remaining wells. Bacteria were then added at 50 μL/well for a starting concentration as above. […] The MICs were read and defined as above. All animal procedures were performed by the contract research organization Pharmacology Discovery Services Taiwan in accordance with the Guide for the Care and Use of Laboratory Animals. The procedures were approved by the Institutional Ethics Committee of Pharmacology Discovery Services Taiwan, Ltd. (approval no. AB127662), in compliance with animal welfare legislation in Taiwan.

Acinetobacter baumannii = assay: MIC (microbroth dilution); assay type: cell-based
Procedure: All bacteria were maintained on tryptic soy agar (TSA), except Streptococcus spp., which were maintained on Columbia agar plates containing 5% horse blood. All bacterial assays were carried out in tryptic soy broth (TSB), except for Streptococcus spp. which were grown in cation-adjusted Mueller Hinton broth containing 2.5% lysed horse blood. Bacteria were grown to stationary phase in liquid culture overnight, with shaking at 200 rpm, before being back diluted to the relevant starting concentration for each assay below. MICs were measured by the microbroth dilution method. […] Absorbance at OD600 was read on a CLARIOstar spectrophotometer (BMG Labtech) and the MIC was defined as the minimum concentration of compound where no visible growth was detected. The compounds were prepared as a DMSO stock and equivalent concentrations of DMSO had no effect on bacterial growth. MICs were also performed in the presence of the outer membrane permeator, polymyxin b nonapeptide (PMBN) following the same MIC method but with the following variation. The 2-fold dilution series of compound was prepared as above, then 50 μL of PMBN at a final concentration of 30 μg/mL was added to relevant wells, while 50 μL/well of blank media was added to the remaining wells. Bacteria were then added at 50 μL/well for a starting concentration as above. Thirty μg/mL of PMBN had no effect on bacterial growth. The MICs were read and defined as above. All animal procedures were performed by the contract research organization Pharmacology Discovery Services Taiwan in accordance with the Guide for the Care and Use of Laboratory Animals. The procedures were approved by the Institutional Ethics Committee of Pharmacology Discovery Services Taiwan, Ltd. (approval no. AB127662), in compliance with animal welfare legislation in Taiwan.

K. pneumoniae = assay: MIC (microbroth dilution); assay type: cell-based, Klebsiella pneumoniae; settings: Klebsiella pneumoniae, read-out: MIC
Procedure: as §1

E. coli = assay: MIC (microbroth dilution); assay type: cell-based; settings: Escherichia coli
Procedure: as §1

A. baumannii strain AYE = assay: Time-kill assay; assay type: cell-based; settings: 4 × MIC
Procedure: Time-kill assays were performed as defined previously.

S. aureus [2] = assay: Serial passaging, MIC of adapted strains; assay type: cell-based; settings: Staphylococcus aureus
Procedure: MICs were performed on the first and 10th passage.

[3] = system: NorA overexpressing strain NCTC 13616; assay: Reserpine growth (efflux inhibition) assay; settings: 0.5x MIC with vs without reserpine
Procedure: Statistical analyses were performed with GraphPad Prism V9.5.0. […] Unpaired t tests were used when comparing two samples in the gyrase assays.

[4] = reported values; cited from earlier work

**Q.** Which “fold more active than moxifloxacin” value (S. aureus [1]) does the source give for `COc1c(N2CC[C@@H](Nc3ncccn3)C2)c(F)cc2c(=O)c(C(=O)O)cn(C3CC3)c12` [Compound 51, (R)-1-Cyclopropyl-6-fluoro-8-methoxy-4-oxo-7-(3-(pyrimidin-2-ylamino)pyrrolidin-1-yl)-1,4-dihydroquinoline-3-carboxylic acid] here?
**A.** 4–8 fold

**Q.** And the MIC (S. aureus [1]; ATCC9144, ATCC 9144, read-out: MIC)?
**A.** ≤ 0.03 µg/mL

**Q.** And the MIC (S. aureus [1]; NCTC13277, NCTC 13277, read-out: MIC)?
**A.** 0.125 to 0.25 µg/mL (≈ 0.284 to 0.569 µM)

**Q.** What about the MIC (S. aureus [1]; NCTC13616, NCTC 13616, read-out: MIC) of the same molecule?
**A.** 0.125 µg/mL (≈ 0.284 µM)

**Q.** What about the MIC (S. aureus [1]; SA-1199, read-out: MIC) of the same molecule?
**A.** 0.004 µg/mL (≈ 0.0091 µM)

**Q.** And the MIC (S. aureus [1]; SA-1199B (NorA-overexpressing))?
**A.** 0.004 µg/mL (≈ 0.0091 µM)

**Q.** What about the MIC (Acinetobacter baumannii; Acinetobacter baumannii, 86, oxa23) of the same molecule?
**A.** 16 µg/mL (≈ 36.4 µM)

**Q.** What about the MIC (Acinetobacter baumannii; Acinetobacter baumannii, A601 colS) of the same molecule?
**A.** ≤ 0.03 µg/mL

**Q.** And the MIC (Acinetobacter baumannii; Acinetobacter baumannii, ATCC17978, ATCC 17978, read-out: MIC)?
**A.** ≤ 0.125 µg/mL

**Q.** What about the MIC (Acinetobacter baumannii; Acinetobacter baumannii, BAA1709, BAA-1709, read-out: MIC) of the same molecule?
**A.** 0.06 µg/mL (≈ 0.137 µM)

**Q.** What about the MIC (Acinetobacter baumannii; Acinetobacter baumannii, BAA1710, BAA-1710 (AYE), read-out: MIC) of the same molecule?
**A.** 4 µg/mL (≈ 9.1 µM)

**Q.** What about the MIC (Acinetobacter baumannii; Acinetobacter baumannii, BAA2093, BAA-2093, read-out: MIC) of the same molecule?
**A.** 0.03 to 0.06 µg/mL (≈ 0.0683 to 0.137 µM)

**Q.** And the MIC (Acinetobacter baumannii; Acinetobacter baumannii, NCTC10303, NCTC 10303, read-out: MIC)?
**A.** 0.06 µg/mL (≈ 0.137 µM)

**Q.** And the MIC (Acinetobacter baumannii; Acinetobacter baumannii, NCTC12156, NCTC 12156, read-out: MIC)?
**A.** 0.125 µg/mL (≈ 0.284 µM)

**Q.** What about the MIC (Acinetobacter baumannii; Acinetobacter baumannii, NCTC13302, NCTC 13302, oxa24, read-out: MIC) of the same molecule?
**A.** 4 µg/mL (≈ 9.1 µM)

**Q.** What about the MIC (Acinetobacter baumannii; Acinetobacter baumannii, NCTC13424, NCTC 13424, oxa23, read-out: MIC) of the same molecule?
**A.** > 32 µg/mL

**Q.** What about the MIC (Acinetobacter baumannii; Acinetobacter baumannii, T strain) of the same molecule?
**A.** 8 µg/mL (≈ 18.2 µM)

**Q.** What about the MIC (Acinetobacter baumannii; Acinetobacter baumannii, UKA1, oxa23, read-out: MIC) of the same molecule?
**A.** 2 µg/mL (≈ 4.55 µM)

**Q.** What about the MIC (Acinetobacter baumannii; Acinetobacter baumannii, UKA2, Low resistance, read-out: MIC) of the same molecule?
**A.** 4 µg/mL (≈ 9.1 µM)

**Q.** And the MIC (Acinetobacter baumannii; Acinetobacter baumannii, UKA9, read-out: MIC)?
**A.** 0.06 µg/mL (≈ 0.137 µM)

**Q.** What about the MIC (Acinetobacter baumannii; Acinetobacter baumannii, UKA12, oxa23, read-out: MIC) of the same molecule?
**A.** 2 µg/mL (≈ 4.55 µM)

**Q.** What about the MIC (Acinetobacter baumannii; Acinetobacter baumannii, UKA13, oxa23, read-out: MIC) of the same molecule?
**A.** 2 µg/mL (≈ 4.55 µM)

**Q.** What about the MIC (Acinetobacter baumannii; Acinetobacter baumannii, UKA15, oxa23, read-out: MIC) of the same molecule?
**A.** 2 µg/mL (≈ 4.55 µM)

**Q.** What about the MIC (Acinetobacter baumannii; Acinetobacter baumannii, UKA19, read-out: MIC) of the same molecule?
**A.** 0.25 µg/mL (≈ 0.569 µM)

**Q.** What about the MIC (Acinetobacter baumannii; Acinetobacter baumannii, W1, read-out: MIC) of the same molecule?
**A.** 4 µg/mL (≈ 9.1 µM)

**Q.** And the MIC (K. pneumoniae; M6)?
**A.** 1 to 2 µg/mL (≈ 2.28 to 4.55 µM)

**Q.** And the MIC (K. pneumoniae; NCTC13368, NCTC 13368)?
**A.** 4 µg/mL (≈ 9.1 µM)

**Q.** And the MIC (K. pneumoniae; TW3)?
**A.** 0.5 µg/mL (≈ 1.14 µM)

**Q.** What about the MIC (E. coli; 319238/UR) of the same molecule?
**A.** 16 µg/mL (≈ 36.4 µM)

**Q.** And the MIC (E. coli; LEC006)?
**A.** 0.25 µg/mL (≈ 0.569 µM)

**Q.** And the MIC (E. coli; LEC007)?
**A.** 0.125 µg/mL (≈ 0.284 µM)

**Q.** And the MIC (E. coli; LEC077)?
**A.** 4 µg/mL (≈ 9.1 µM)

**Q.** What about the MIC (E. coli; LEC081) of the same molecule?
**A.** 2 µg/mL (≈ 4.55 µM)

**Q.** And the MIC (E. coli; NCTC10418, NCTC 10418)?
**A.** 0.125 µg/mL (≈ 0.284 µM)

**Q.** What about the MIC (E. coli; NCTC11954, NCTC 11954) of the same molecule?
**A.** 0.125 µg/mL (≈ 0.284 µM)

**Q.** And the MIC (E. coli; NCTC12241, NCTC 12241)?
**A.** 0.06 µg/mL (≈ 0.137 µM)

**Q.** What about the MIC (E. coli; NCTC12923, NCTC 12923) of the same molecule?
**A.** ≤ 0.125 µg/mL

**Q.** And the time-kill profile (A. baumannii strain AYE)?
**A.** rapid bactericidal activity

**Q.** What about the MIC (S. aureus [2]; 1199B WT) of the same molecule?
**A.** 0.008 µg/mL

**Q.** What about the MIC (S. aureus [2]; 1199B adapted to 4 x MIC of Compound 7) of the same molecule?
**A.** 0.008 µg/mL

**Q.** And the MIC (S. aureus [2]; 1199B adapted to 4 x MIC of Compound 46)?
**A.** 0.03 µg/mL

**Q.** What about the MIC (S. aureus [2]; 1199B adapted to 4 x MIC of Compound 50) of the same molecule?
**A.** 0.125 µg/mL

**Q.** And the MIC (S. aureus [2]; 1199B adapted to 4 x MIC of Compound 51)?
**A.** 0.015 µg/mL

**Q.** What about the MIC (S. aureus [2]; 1199 WT) of the same molecule?
**A.** 0.004 µg/mL

**Q.** What about the MIC (S. aureus [2]; 1199 adapted to 4 x MIC of Compound 7) of the same molecule?
**A.** ≤ 0.008 µg/mL

**Q.** And the MIC (S. aureus [2]; 1199 adapted to 4 x MIC of Compound 46)?
**A.** ≤ 0.008 µg/mL

**Q.** What about the MIC (S. aureus [2]; 1199 adapted to 4 x MIC of Compound 50) of the same molecule?
**A.** 0.06 µg/mL

**Q.** And the MIC (S. aureus [2]; 1199 adapted to 4 x MIC of Compound 51)?
**A.** 0.015 µg/mL

**Q.** What about the MIC (S. aureus [2]; NCTC13616, NCTC 13616 WT) of the same molecule?
**A.** 0.125 µg/mL

**Q.** What about the MIC (S. aureus [2]; NCTC13616, NCTC 13616 adapted to 4 x MIC of Compound 7) of the same molecule?
**A.** 0.25 µg/mL

**Q.** And the MIC (S. aureus [2]; NCTC13616, NCTC 13616 adapted to 4 x MIC of Compound 46)?
**A.** 0.125 µg/mL

**Q.** And the MIC (S. aureus [2]; NCTC13616, NCTC 13616 adapted to 4 x MIC of Compound 50)?
**A.** 0.25 µg/mL

**Q.** And the MIC (S. aureus [2]; NCTC13616, NCTC 13616 adapted to 4 x MIC of Compound 51)?
**A.** 0.5 µg/mL

**Q.** What about the “efflux liability in reserpine assay” value [3] of the same molecule?
**A.** minimal shift

**Q.** For `Nc1nc(-n2cc(C(=O)O)c(=O)c3cc(F)c(N4CC(O)C4)c(Cl)c32)c(F)cc1F` [delafloxacin], which plasma protein binding [4] is on record?
**A.** 84%
